Tests used:
[1] = test system: G-401 (Other Solid Carcinomas); experiment: combination Emax (second highest fraction inhibited in the dose matrix, 72 h); higher = more inhibition; extreme values may be limits of the assay
Outline: (§1)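 After 24 hours at 37°C and 5% CO2 in 1536-well plates, cells in DMEM/F12 or RPMI plus 10% FBS received two-drug dose matrices for 72 hours. Viability came from CellTiter-Glo 2.0 luminescence and was scaled as inhibition, anchored at 0 by vehicle wells and at 1 by blank wells. Combination Emax is taken as the second-highest inhibition in the matrix, and Bliss excess as the observed combination effect less EA + EB − EA·EB, with EA and EB the single-agent effects.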

[2] = test system: OE33 (Esophageal Adenocarcinoma); experiment: as above
Outline: as §1

[3] = test system: NCI-H1355 (Lung Adenocarcinoma); experiment: as above
Outline: as §1

EW-1 (Ewing's Sarcoma) = experiment: as above
Outline: as §1

[4] = test system: HAL-01 (B-Lymphoblastic Leukemia); experiment: as above
Outline: as §1

[5] = test system: SW872 (Other Solid Carcinomas); experiment: as above
Outline: as §1

[6] = test system: NCI-H1092 (Small Cell Lung Carcinoma); experiment: as above
Outline: as §1

[7] = test system: KOPN-8 (B-Lymphoblastic Leukemia); experiment: as above
Outline: as §1

[8] = test system: NCI-H2122 (Lung Adenocarcinoma); experiment: as above
Outline: as §1

[9] = test system: OACM5-1 (Esophageal Adenocarcinoma); experiment: as above
Outline: as §1

[10] = test system: HCC1937 (Breast Carcinoma); experiment: as above
Outline: as §1

[11] = test system: MDA-MB-453 (Breast Carcinoma); experiment: as above
Outline: as §1

[12] = test system: HCC1500 (Breast Carcinoma); experiment: as above
Outline: as §1

[13] = test system: ALL-SIL (T-Lymphoblastic Leukemia); experiment: as above
Outline: as §1

[14] = test system: SNU-387 (Hepatocellular Carcinoma); experiment: as above
Outline: as §1

[15] = test system: Ca-Ski (Cervical Carcinoma); experiment: as above
Outline: as §1

[16] = test system: COLO-668 (Small Cell Lung Carcinoma); experiment: as above
Outline: as §1

[17] = test system: A4-Fuk (B-Lymphoblastic Leukemia); experiment: as above
Outline: as §1

[18] = test system: NCI-H650 (Lung Adenocarcinoma); experiment: Bliss excess, mean over the matrix (fraction); higher = more synergy
Outline: as §1

[19] = test system: SW872 (Other Solid Carcinomas); experiment: as above
Outline: as §1
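For Bliss excess, mean over the matrix in this document: after 72 h of two-drug dosing.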

Row | Structure (SMILES) | combination Emax [1] | combination Emax [2] | combination Emax [3] | combination Emax (EW-1 (Ewing's Sarcoma)) | combination Emax [4] | combination Emax [5] | combination Emax [6] | combination Emax [7] | combination Emax [8] | combination Emax [9] | combination Emax [10] | combination Emax [11] | combination Emax [12] | combination Emax [13] | combination Emax [14] | combination Emax [15] | combination Emax [16] | combination Emax [17] | Bliss excess [18] | Bliss excess [19]
1 | COc1nnc2ccc(N3CCC(c4ccc(OCCN5CCN(C)C(=O)[C@H]5C)cc4)CC3)nn12 [AZD5153] + Cc1c2c(nn1C)CSCc1cc(n(C)n1)CSc1cc(c3ccccc3c1)OCCCc1c(C(=O)O)n(C)c3c-2c(Cl)ccc13 [AZD5991] (first compound max 1 µM, 7x7, partner max 1 µM) | 0.956 | 0.242 | 0.358 | 0.751 | 0.873 | 0.697 | 0.865 | 1 | 0.913 | 0.952 | 0.507 | 0.953 | 0.696 | 0.984 | 0.614 | 0.835 | 0.564 | 1 | -0.03 | -0.0229
2 | COc1nnc2ccc(N3CCC(c4ccc(OCCN5CCN(C)C(=O)[C@H]5C)cc4)CC3)nn12 [AZD5153] + Cn1cnc2c(F)c(Nc3ccc(Br)cc3Cl)c(C(=O)NOCCO)cc21 [Selumetinib] (first compound max 1 µM, 7x7, partner max 10 µM) | 0.841 | 0.414 | 0.483 | 0.618 | 0.849 | 0.784 | 0.192 | 1 | 1 | 0.663 | 0.396 | 0.614 | 0.387 | 0.778 | 0.514 | 0.813 | 0.899 | 0.934 | 0.0339 | 0.0635
3 | Cc1c2c(nn1C)CSCc1cc(n(C)n1)CSc1cc(c3ccccc3c1)OCCCc1c(C(=O)O)n(C)c3c-2c(Cl)ccc13 [AZD5991] + C1CN(CCC1(C(=O)N[C@@H](CCO)C2=CC=C(C=C2)Cl)N)C3=NC=NC4=C3C=CN4 [Capivasertib] (first compound max 1 µM, 7x7, partner max 3 µM) | 0.56 | 0.112 | 0.227 | 0.415 | 0.527 | 0.282 | 0.534 | 0.901 | 0.608 | 0.969 | 0.456 | 0.61 | 0.377 | 1 | 0.345 | 0.609 | 0.303 | 1 | -0.0044 | 0.0057
4 | Cc1c2c(nn1C)CSCc1cc(n(C)n1)CSc1cc(c3ccccc3c1)OCCCc1c(C(=O)O)n(C)c3c-2c(Cl)ccc13 [AZD5991] + C=CCn1c(=O)c2cnc(Nc3ccc(N4CCN(C)CC4)cc3)nc2n1-c1cccc(C(C)(C)O)n1 [AZD1775] (first compound max 1 µM, partner max 1 µM) | 0.901 | 0.573 | 0.57 | 0.974 | 0.907 | 0.374 | 0.696 | 0.998 | 0.979 | 0.928 | 0.617 | 0.4 | 0.49 | 1 | 0.581 | 0.816 | 0.464 | 1 | 0.0397 | 0.0634
5 | Cc1c2c(nn1C)CSCc1cc(n(C)n1)CSc1cc(c3ccccc3c1)OCCCc1c(C(=O)O)n(C)c3c-2c(Cl)ccc13 [AZD5991] + CC1(C)CCC(CN2CCN(c3ccc(C(=O)NS(=O)(=O)c4ccc(NCC5CCOCC5)c([N+](=O)[O-])c4)c(Oc4cnc5[nH]ccc5c4)c3)CC2)=C(c2ccc(Cl)cc2)C1 [Venetoclax] (first compound max 1 µM, 7x7, partner max 1 µM) | 0.565 | 0.21 | 0.188 | 0.684 | 0.984 | 0.312 | 0.989 | 0.936 | 0.823 | 0.917 | 0.316 | 0.346 | 1 | 1 | 0.454 | 0.682 | 0.686 | 1 | -0.0014 | -0.0443
6 | Cc1c2c(nn1C)CSCc1cc(n(C)n1)CSc1cc(c3ccccc3c1)OCCCc1c(C(=O)O)n(C)c3c-2c(Cl)ccc13 [AZD5991] + CCN(CCO)CCCOc1ccc2c(Nc3cc(CC(=O)Nc4cccc(F)c4)[nH]n3)ncnc2c1 [AZD2811] (first compound max 1 µM, 7x7, partner max 1 µM) | 0.615 | 0.139 | 0.334 | 0.482 | 0.468 | 0.249 | 0.626 | 0.983 | 0.883 | 0.946 | 0.4 | 0.75 | 0.53 | 1 | 0.458 | 0.7 | 0.235 | 1 | 0.0512 | 0.0237
7 | Cc1c2c(nn1C)CSCc1cc(n(C)n1)CSc1cc(c3ccccc3c1)OCCCc1c(C(=O)O)n(C)c3c-2c(Cl)ccc13 [AZD5991] + CN(C)CCCOc1ccc(-c2ccc3ncc4c(c3c2)n(C2CCOCC2)c(=O)n4C)cn1 [AZD0156] (first compound max 1 µM, 7x7, partner max 1 µM) | 0.733 | 0.156 | 0.263 | 0.375 | 0.686 | 0.226 | 0.562 | 0.963 | 0.656 | 0.928 | 0.333 | 0.298 | 0.53 | 0.986 | 0.376 | 0.303 | 0.222 | 1 | 0.0527 | 0.0164

— the supplement of paper PMC11061612
